Test results published in the kinase profiling compilation of Christmann-Franck et al. (2016).

Tests used:
Assay in all cases: radiometric filter-binding kinase assay, Kinase HotSpot
Settings in all cases: compound 0.5 µM; ATP 10 µM
CDK6 CCND3 (human) = CDK6 CCND3 (human) (UniProt P30281+Q00534)
EGFR (human) = EGFR (human) (UniProt P00533)
PBK (human) = PBK (human) (UniProt Q96KB5)
CSNK1G2 (human) = CSNK1G2 (human) (UniProt P78368)
MAP4K4 (human) = MAP4K4 (human) (UniProt O95819)
NEK2 (human) = NEK2 (human) (UniProt P51955)
HIPK4 (human) = HIPK4 (human) (UniProt Q8NE63)
BRSK1 (human) = BRSK1 (human) (UniProt Q8TDC3)
PASK (human) = PASK (human) (UniProt Q96RG2)
TEC (human) = TEC (human) (UniProt P42680)
PRKG2 (human) = PRKG2 (human) (UniProt Q13237)
Sequence of PRKG2 (human) (Q13237 whole entry, looked up): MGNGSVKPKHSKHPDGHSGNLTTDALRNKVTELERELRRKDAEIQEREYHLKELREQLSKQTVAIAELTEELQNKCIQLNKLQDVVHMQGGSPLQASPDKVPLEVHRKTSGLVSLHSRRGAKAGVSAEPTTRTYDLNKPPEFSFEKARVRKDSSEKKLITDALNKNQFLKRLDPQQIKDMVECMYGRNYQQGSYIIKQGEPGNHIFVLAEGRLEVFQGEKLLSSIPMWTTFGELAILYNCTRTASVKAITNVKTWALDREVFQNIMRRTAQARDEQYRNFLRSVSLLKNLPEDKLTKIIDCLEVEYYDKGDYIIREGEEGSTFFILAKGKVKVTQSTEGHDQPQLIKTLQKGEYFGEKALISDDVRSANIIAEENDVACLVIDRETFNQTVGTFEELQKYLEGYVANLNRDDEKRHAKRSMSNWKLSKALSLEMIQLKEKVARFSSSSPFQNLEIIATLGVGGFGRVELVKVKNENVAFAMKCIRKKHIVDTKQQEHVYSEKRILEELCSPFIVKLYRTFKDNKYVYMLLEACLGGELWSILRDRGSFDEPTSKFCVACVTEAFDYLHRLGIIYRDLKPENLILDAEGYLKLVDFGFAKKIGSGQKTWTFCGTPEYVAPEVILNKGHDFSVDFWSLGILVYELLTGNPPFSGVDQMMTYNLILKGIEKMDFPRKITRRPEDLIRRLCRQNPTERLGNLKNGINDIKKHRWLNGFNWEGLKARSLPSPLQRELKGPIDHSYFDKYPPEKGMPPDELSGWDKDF

ITK (human) = ITK (human) (UniProt Q08881)
SGK2 (human) = SGK2 (human) (UniProt Q9HBY8)
Sequence of SGK2 (human) (Q9HBY8 whole entry, looked up): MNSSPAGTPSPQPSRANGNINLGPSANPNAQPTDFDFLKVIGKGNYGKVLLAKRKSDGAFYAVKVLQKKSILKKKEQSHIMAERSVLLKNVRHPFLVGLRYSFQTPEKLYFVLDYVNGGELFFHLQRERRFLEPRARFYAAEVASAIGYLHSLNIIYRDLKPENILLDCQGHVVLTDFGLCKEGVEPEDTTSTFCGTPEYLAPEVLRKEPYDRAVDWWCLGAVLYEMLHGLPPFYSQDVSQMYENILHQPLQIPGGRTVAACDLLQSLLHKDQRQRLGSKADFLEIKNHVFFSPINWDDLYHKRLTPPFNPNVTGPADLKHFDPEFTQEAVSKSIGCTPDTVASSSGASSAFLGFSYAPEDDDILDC

MYLK2 (human) = MYLK2 (human) (UniProt Q9H1R3)
KDR (human) = KDR (human) (UniProt P35968)
Sequence of KDR (human) (P35968 whole entry, looked up): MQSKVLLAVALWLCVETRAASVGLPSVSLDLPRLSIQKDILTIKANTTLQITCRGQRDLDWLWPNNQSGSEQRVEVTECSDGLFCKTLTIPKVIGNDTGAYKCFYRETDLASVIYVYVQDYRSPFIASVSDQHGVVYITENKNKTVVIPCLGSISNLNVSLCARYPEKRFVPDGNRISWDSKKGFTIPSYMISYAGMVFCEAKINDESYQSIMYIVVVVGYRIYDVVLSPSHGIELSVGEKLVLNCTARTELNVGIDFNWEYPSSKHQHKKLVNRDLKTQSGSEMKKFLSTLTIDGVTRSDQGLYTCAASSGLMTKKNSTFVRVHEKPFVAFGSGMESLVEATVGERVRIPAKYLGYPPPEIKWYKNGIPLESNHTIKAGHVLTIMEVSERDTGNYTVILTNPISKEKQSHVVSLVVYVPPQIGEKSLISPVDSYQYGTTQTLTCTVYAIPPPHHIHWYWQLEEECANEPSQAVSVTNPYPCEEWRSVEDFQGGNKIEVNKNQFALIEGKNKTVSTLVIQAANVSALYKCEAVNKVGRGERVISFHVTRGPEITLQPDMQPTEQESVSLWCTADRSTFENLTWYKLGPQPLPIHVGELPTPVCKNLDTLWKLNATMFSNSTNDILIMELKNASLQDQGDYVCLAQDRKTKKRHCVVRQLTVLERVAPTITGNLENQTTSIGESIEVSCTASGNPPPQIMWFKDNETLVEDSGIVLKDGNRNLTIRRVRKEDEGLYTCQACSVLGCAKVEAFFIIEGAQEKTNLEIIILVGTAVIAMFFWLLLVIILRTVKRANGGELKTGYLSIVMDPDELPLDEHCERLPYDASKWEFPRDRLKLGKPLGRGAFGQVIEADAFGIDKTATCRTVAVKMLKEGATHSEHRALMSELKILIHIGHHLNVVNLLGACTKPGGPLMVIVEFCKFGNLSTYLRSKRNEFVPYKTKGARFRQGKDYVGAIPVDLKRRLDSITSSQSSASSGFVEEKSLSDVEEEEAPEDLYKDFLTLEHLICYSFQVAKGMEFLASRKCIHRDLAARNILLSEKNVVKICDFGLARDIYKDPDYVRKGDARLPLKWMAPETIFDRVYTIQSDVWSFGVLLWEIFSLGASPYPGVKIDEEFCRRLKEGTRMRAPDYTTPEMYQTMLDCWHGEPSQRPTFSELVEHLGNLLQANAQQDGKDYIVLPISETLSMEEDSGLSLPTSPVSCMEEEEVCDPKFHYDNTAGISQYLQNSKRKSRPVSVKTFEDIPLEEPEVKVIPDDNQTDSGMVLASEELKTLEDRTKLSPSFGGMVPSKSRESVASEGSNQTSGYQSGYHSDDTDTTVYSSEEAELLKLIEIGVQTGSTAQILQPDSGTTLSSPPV

EPHA5 (human) = EPHA5 (human) (UniProt P54756)
MAP3K11 (human) = MAP3K11 (human) (UniProt Q16584)
PRKD2 (human) = PRKD2 (human) (UniProt Q9BZL6)
RPS6KA1 KD1 KD2 (human) = RPS6KA1 KD1 KD2 (human) (UniProt Q15418)
Sequence of RPS6KA1 KD1 KD2 (human) (Q15418 whole entry, looked up): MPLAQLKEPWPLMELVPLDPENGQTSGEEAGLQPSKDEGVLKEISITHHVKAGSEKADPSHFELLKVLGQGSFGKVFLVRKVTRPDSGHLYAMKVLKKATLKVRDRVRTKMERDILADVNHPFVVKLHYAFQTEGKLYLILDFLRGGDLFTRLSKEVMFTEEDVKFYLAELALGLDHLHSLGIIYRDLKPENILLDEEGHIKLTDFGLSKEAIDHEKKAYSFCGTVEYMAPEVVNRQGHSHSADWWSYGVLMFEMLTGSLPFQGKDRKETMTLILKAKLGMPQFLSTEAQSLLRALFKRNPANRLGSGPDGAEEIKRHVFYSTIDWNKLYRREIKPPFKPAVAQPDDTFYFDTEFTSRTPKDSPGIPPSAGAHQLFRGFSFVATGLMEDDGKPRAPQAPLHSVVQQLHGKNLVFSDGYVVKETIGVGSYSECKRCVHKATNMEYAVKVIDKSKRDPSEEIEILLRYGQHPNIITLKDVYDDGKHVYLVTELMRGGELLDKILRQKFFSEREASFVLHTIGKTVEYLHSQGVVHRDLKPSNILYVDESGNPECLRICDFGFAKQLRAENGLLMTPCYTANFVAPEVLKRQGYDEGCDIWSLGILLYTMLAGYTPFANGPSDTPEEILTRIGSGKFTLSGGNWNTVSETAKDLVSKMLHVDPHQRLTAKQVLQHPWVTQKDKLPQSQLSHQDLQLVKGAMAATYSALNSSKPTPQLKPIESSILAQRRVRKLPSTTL

CAMK2G (human) = CAMK2G (human) (UniProt Q13555)
NEK1 (human) = NEK1 (human) (UniProt Q96PY6)
PAK4 (human) = PAK4 (human) (UniProt O96013)
CDK3 CCNE1 (human) = CDK3 CCNE1 (human) (UniProt Q00526+P24864)
ERBB4 (human) = ERBB4 (human) (UniProt Q15303)
CAMK2D (human) = CAMK2D (human) (UniProt Q13557)
MARK3 (human) = MARK3 (human) (UniProt P27448)
DCLK2 (human) = DCLK2 (human) (UniProt Q8N568)
SRPK1 (human) = SRPK1 (human) (UniProt Q96SB4)
ACVR1 (human) = ACVR1 (human) (UniProt Q04771)
TAOK1 (human) = TAOK1 (human) (UniProt Q7L7X3)
STK10 (human) = STK10 (human) (UniProt O94804)
TGFBR2 (human) = TGFBR2 (human) (UniProt P37173)
Sequence of TGFBR2 (human) (P37173 whole entry, looked up): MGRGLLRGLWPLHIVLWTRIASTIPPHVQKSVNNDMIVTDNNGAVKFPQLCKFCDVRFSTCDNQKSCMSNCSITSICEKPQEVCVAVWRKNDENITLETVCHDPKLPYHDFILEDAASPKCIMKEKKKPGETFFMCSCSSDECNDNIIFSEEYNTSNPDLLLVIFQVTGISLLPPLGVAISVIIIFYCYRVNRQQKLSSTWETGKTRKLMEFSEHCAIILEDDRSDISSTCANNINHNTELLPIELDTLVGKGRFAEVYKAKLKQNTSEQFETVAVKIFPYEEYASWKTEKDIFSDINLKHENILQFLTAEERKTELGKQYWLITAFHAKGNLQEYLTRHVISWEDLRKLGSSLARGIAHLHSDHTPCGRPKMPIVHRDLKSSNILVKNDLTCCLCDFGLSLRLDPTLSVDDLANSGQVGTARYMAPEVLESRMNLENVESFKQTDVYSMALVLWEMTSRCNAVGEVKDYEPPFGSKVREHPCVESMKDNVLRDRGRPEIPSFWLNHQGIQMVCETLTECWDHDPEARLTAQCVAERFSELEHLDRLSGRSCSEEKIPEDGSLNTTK

MAPK12 (human) = MAPK12 (human) (UniProt P53778)
Sequence of MAPK12 (human) (P53778 whole entry, looked up): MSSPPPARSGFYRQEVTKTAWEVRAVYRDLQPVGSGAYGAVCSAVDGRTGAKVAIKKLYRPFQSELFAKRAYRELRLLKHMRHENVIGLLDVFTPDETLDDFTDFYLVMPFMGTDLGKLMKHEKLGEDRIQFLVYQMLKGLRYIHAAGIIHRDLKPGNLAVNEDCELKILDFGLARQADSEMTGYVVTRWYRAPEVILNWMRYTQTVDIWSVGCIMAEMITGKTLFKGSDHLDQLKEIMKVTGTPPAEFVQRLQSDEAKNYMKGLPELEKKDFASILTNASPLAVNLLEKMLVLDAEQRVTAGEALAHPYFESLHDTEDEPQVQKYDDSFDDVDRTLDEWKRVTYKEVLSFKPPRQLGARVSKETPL

DAPK2 (human) = DAPK2 (human) (UniProt Q9UIK4)
Sequence of DAPK2 (human) (Q9UIK4 whole entry, looked up): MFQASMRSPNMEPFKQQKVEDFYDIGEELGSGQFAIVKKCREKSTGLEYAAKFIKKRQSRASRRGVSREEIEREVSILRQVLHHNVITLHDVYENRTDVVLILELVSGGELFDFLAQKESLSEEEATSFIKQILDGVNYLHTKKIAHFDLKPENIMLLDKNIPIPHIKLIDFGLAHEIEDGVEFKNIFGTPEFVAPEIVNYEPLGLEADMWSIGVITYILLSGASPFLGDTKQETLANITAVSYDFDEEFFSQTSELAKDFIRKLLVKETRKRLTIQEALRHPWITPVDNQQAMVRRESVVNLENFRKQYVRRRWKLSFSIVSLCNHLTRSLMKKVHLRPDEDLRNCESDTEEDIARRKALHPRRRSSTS

ABL2 (human) = ABL2 (human) (UniProt P42684)
EPHA3 (human) = EPHA3 (human) (UniProt P29320)
GSK3A (human) = GSK3A (human) (UniProt P49840)
Sequence of GSK3A (human) (P49840 whole entry, looked up): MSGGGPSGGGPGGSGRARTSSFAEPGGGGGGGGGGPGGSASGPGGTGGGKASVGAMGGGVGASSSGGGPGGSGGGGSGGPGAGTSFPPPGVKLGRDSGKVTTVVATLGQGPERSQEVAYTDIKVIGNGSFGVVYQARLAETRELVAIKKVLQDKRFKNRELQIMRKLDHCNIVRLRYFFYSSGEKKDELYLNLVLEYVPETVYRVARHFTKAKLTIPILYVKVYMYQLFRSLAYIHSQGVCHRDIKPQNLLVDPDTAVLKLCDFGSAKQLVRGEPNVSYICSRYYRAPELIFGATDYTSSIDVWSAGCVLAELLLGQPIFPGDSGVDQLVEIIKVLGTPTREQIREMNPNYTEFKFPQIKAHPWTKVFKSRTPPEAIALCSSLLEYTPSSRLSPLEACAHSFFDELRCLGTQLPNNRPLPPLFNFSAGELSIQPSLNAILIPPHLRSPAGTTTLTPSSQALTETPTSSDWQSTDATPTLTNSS

TAOK3 (human) = TAOK3 (human) (UniProt Q9H2K8)
NLK (human) = NLK (human) (UniProt Q9UBE8)

SMILES: Ic1cccc(CSc2nnc(-c3ccncc3)o2)c1
- residual activity (CDK6 CCND3 (human)): 102%
- residual activity (EGFR (human)): 97.1%
- residual activity (PBK (human)): 62.7%
- residual activity (CSNK1G2 (human)): 99.2%
- residual activity (MAP4K4 (human)): 97.4%
- residual activity (NEK2 (human)): 100%
- residual activity (HIPK4 (human)): 98.8%
- residual activity (BRSK1 (human)): 101%
- residual activity (PASK (human)): 100%
- residual activity (TEC (human)): 106%
- residual activity (PRKG2 (human)): 105%
- residual activity (ITK (human)): 102%
- residual activity (SGK2 (human)): 102%
- residual activity (MYLK2 (human)): 101%
- residual activity (KDR (human)): 78.1%
- residual activity (EPHA5 (human)): 100%
- residual activity (MAP3K11 (human)): 99.6%
- residual activity (PRKD2 (human)): 97.1%
- residual activity (RPS6KA1 KD1 KD2 (human)): 98.6%
- residual activity (CAMK2G (human)): 96.8%
- residual activity (NEK1 (human)): 95.5%
- residual activity (PAK4 (human)): 83.6%
- residual activity (CDK3 CCNE1 (human)): 87.4%
- residual activity (ERBB4 (human)): 96.4%
- residual activity (CAMK2D (human)): 96.8%
- residual activity (MARK3 (human)): 124%
- residual activity (DCLK2 (human)): 100%
- residual activity (SRPK1 (human)): 103%
- residual activity (ACVR1 (human)): 97.4%
- residual activity (TAOK1 (human)): 101%
- residual activity (STK10 (human)): 93.8%
- residual activity (TGFBR2 (human)): 121%
- residual activity (MAPK12 (human)): 93%
- residual activity (DAPK2 (human)): 108%
- residual activity (ABL2 (human)): 110%
- residual activity (EPHA3 (human)): 111%
- residual activity (GSK3A (human)): 42.7%
- residual activity (TAOK3 (human)): 103%
- residual activity (NLK (human)): 107%

SMILES: CCCCc1c(-c2ccc(OC)cc2)[nH]c2nccnc12
- residual activity (CDK6 CCND3 (human)): 79.7%
- residual activity (EGFR (human)): 103%
- residual activity (PBK (human)): 80.6%
- residual activity (CSNK1G2 (human)): 92.5%
- residual activity (MAP4K4 (human)): 66.5%
- residual activity (NEK2 (human)): 115%
- residual activity (HIPK4 (human)): 119%
- residual activity (BRSK1 (human)): 89.1%
- residual activity (PASK (human)): 97.6%
- residual activity (TEC (human)): 134%
- residual activity (PRKG2 (human)): 93.9%
- residual activity (ITK (human)): 99.4%
- residual activity (SGK2 (human)): 116%
- residual activity (MYLK2 (human)): 102%
- residual activity (KDR (human)): 88.8%
- residual activity (EPHA5 (human)): 91.6%
- residual activity (MAP3K11 (human)): 39.4%
- residual activity (PRKD2 (human)): 101%
- residual activity (RPS6KA1 KD1 KD2 (human)): 89.8%
- residual activity (CAMK2G (human)): 107%
- residual activity (NEK1 (human)): 86.9%
- residual activity (PAK4 (human)): 107%
- residual activity (CDK3 CCNE1 (human)): 83.8%
- residual activity (ERBB4 (human)): 109%
- residual activity (CAMK2D (human)): 93.3%
- residual activity (MARK3 (human)): 91.2%
- residual activity (DCLK2 (human)): 101%
- residual activity (SRPK1 (human)): 100%
- residual activity (ACVR1 (human)): 86.9%
- residual activity (TAOK1 (human)): 87%
- residual activity (STK10 (human)): 95.4%
- residual activity (TGFBR2 (human)): 74.8%
- residual activity (MAPK12 (human)): 102%
- residual activity (DAPK2 (human)): 101%
- residual activity (ABL2 (human)): 70.5%
- residual activity (EPHA3 (human)): 91.9%
- residual activity (GSK3A (human)): 55.8%
- residual activity (TAOK3 (human)): 103%
- residual activity (NLK (human)): 88.4%

SMILES: Cn1c2ccccc2c2c3c(c4c5ccccc5n(CCC#N)c4c21)CNC3=O
- residual activity (CDK6 CCND3 (human)): 52.1%
- residual activity (PBK (human)): 84.2%
- residual activity (CSNK1G2 (human)): 105%
- residual activity (MAP4K4 (human)): 0.433%
- residual activity (NEK2 (human)): 89.9%
- residual activity (HIPK4 (human)): 103%
- residual activity (BRSK1 (human)): 20.2%
- residual activity (PASK (human)): 84.3%
- residual activity (TEC (human)): 96.4%
- residual activity (PRKG2 (human)): 28.2%
- residual activity (ITK (human)): 4.32%
- residual activity (SGK2 (human)): 94%
- residual activity (MYLK2 (human)): 59.6%
- residual activity (KDR (human)): 57%
- residual activity (EPHA5 (human)): 88.2%
- residual activity (MAP3K11 (human)): 2.19%
- residual activity (PRKD2 (human)): 18.7%
- residual activity (RPS6KA1 KD1 KD2 (human)): 9.7%
- residual activity (CAMK2G (human)): 21.9%
- residual activity (NEK1 (human)): 62.9%
- residual activity (PAK4 (human)): 44%
- residual activity (CDK3 CCNE1 (human)): 65.2%
- residual activity (ERBB4 (human)): 100%
- residual activity (CAMK2D (human)): 20.3%
- residual activity (MARK3 (human)): 13.9%
- residual activity (DCLK2 (human)): 84.7%
- residual activity (SRPK1 (human)): 98.3%
- residual activity (ACVR1 (human)): 155%
- residual activity (TAOK1 (human)): 43.9%
- residual activity (STK10 (human)): 20.1%
- residual activity (TGFBR2 (human)): 117%
- residual activity (MAPK12 (human)): 85.8%
- residual activity (DAPK2 (human)): 84.4%
- residual activity (ABL2 (human)): 42.3%
- residual activity (EPHA3 (human)): 97.9%
- residual activity (GSK3A (human)): 35.6%
- residual activity (NLK (human)): 57.3%
